The text below walks through data of patent US6476074B1, “Method and composition for treatment of erectile dysfunction” (Synphora AB, priority 1997, dated 2002).

For data set [1], the system named is anaesthetized rats. Briefly: Reduction of blood pressure in anaesthetized rats on intravenous infusion. It is filed as in vivo, rat. The following applies: n=3, Mean ± SEM. From the text:
The vasodilatory effect of the prostaglandin analogues was also studied in the rat by registering the blood pressure reducing effect. This is a relevant […] model for showing general vasodilatory effect of importance for inducing erection since vasodilation in penis is needed for achieving erection. Rats were anaesthetized with a mixture of ketarnine and xylazin and the prostaglandin analogues were infused intravenously. The blood pressure was continuously registered in a femoral artery. Each analogue was infused in 3 escalating doses in the same animal. […] In all experiments the blood pressure reduction was transient and the blood pressure increased immediately after termination of the infusion. The analogues were used both as esters and acids for the experiments.

The test system of data set [2] is cat eyes. Briefly: Irritant effect in cat eyes (behavioural model, eyelid closure). The following applies: for Maximum irritative effect: scale 0-3, Mean ± SEM (n = 3-6); for irritant effect (in words): cat eye, topical single dose. It is filed as in vivo. The method, then: The irritant effect of the prostaglandin analogues was tested using a behavioural model in cats. In this model the irritant effect on the eye is studied by registering the degree of eyelid closure and the behaviour of the animals. Compounds that cause discomfort and pain in the eye cause the animals to close their eyes. The analogues were applied as carboxylic acid esters, to enhance bioavailability, topically on the eye as a single dose at different dose levels. The animals were then followed for several hours at regular intervals. Each compound and dose was tested on a group of 3-6 cats. At least 3 days elapsed between two consecutive tests on the same animals. An arbitrary scale from 0 (absence of irritation) to 3 (marked irritation), with half steps was used.

Data set [3] concerns cat eyes. The data set is described as above. It is filed as in vivo. The settings on record: cat eye.
For data set [4], the system named is human corpus cavernosum tissue. Briefly: Relaxation of isolated human corpus cavernosum tissue precontracted with norepinephrine. It counts as cell-based. The following applies: for Reduction in tension (%): precontracted with 10^−6 M norepinephrine, compared to carbachol (10^−6 M), Mean ± SEM; for Reduction in tension (%) / EC50: n=8; for EC50: relaxation of tissue precontracted with 10^−6 M norepinephrine. The method, then:
Human penile cavernous tissue was obtained fresh from surgery, and representative tissue samples were mounted in smooth muscle tissue baths containing a modified Kreb's solution consisting of NaCl 119 mM, KCl 4.6 mM, MgCl2 1.2 mM, NaH2PO4 1.2 mM, NaHCO3 15 mM, CaCl2 1.5 mM and glucose 11 mM. The solution also contained indomethacin at a final concentration of about 3 μM. The solution was continuously bubbled by 95% O2 and 5% CO2, and the temperature was kept at 37° C.
The tissue preparations were stretched by a force corresponding to 500 mg, and were given a contractile tone by the addition of norepinephrine at a concentration of 10^−6 M. Concentration-response curves were then constructed by adding cumulatively increasing concentrations of the prostaglandin analogues to the bath in a routine way. The relaxant effect was normalized by comparing to that of carbachol in the same preparation.

Data set [5] deals with rabbit penile blood vessels. The data set can be described thus: Vasodilatory effect on isolated rabbit penile blood vessels precontracted with norepinephrine (myograph). It is filed as cell-based. The settings on record: FIG. 2; precontracted with 10^−6 M norepinephrine; normalized to papaverine. The method, then:
The solution also contained indomethacin at a final concentration of about 3 μM, and was continuously bubbled by 95% O2 and 5%CO2. The temperature was kept constant at 37° C. The vessels were stretched and then precontracted using 10^-6 M norepinephrine, and the vasorelaxant effect of the prostaglandin analogues was normalized by comparing it to that of papaverine in the same preparation. Cumulative concentration-response curves were constructed for the analogues.

Data set [6] relates to rabbits. The settings on record: Hall and Jaitly, 1977; cited from earlier work.
The subject of data set [7] is cat eyes. Briefly: Intraocular pressure in cats by pneumatonometry after topical administration. The settings on record: 3 cats, local anaesthesia; before treatment 16.3+/−0.9 mmHg; vehicle eye 16.3 and 15.7 mmHg. It is filed as in vivo. The method, then:
To confirm that 19R-OH-PGE2-methyl ester, which is more hydrophilic than PGE1-isopropyl ester, indeed penetrates into the cornea and the intraocular parts of the eye we measured the intraocular pressure in 3 cats under local anaesthesia before and 1 hour after topical administration of the prostaglandin to the eye. The intraocular pressure was measured by pneumatonometry. One eye was treated with the test compound and the other eye received the vehicle only. In the eyes treated topically with 19R-OH-PGE2-methyl ester the intraocular pressure decreased from 16.3+/−0.9 mmHg to 12.7+/−1.2 mmHg, whereas it was 16.3+/−0.9 mmHg and 15.7+/−0.7 mmHg in the control eyes at the same time points. It is well known that prostaglandins reduce the intraocular pressure in cats (Bito et al., 1989), and it can thus be taken as an evidence that the drug has penetrated into the eye. […] Thus the absence of pain and irritation after administration of 18RS-OH-PGE2, 19R-OH-PGE2 and 20OH-PGE2 cannot be explained on the basis of increased hydrophilicity and poor bioavailability.

Data set [8] can be described thus: log P estimated by thin layer chromatography. The settings on record: estimated from thin layer chromatography with PGF2α isopropyl ester as reference. It is filed as physicochemical.
The conditions of data set [9]: reference value used for the TLC estimate; cited from earlier work.
The mark [10] stands for this setting: 7.5-10 μg/kg intravenous infusion.
Where [11] appears, read: 25-35 μg/kg intravenous infusion.

In the case of 18RS-OH-PGE2, the “Reduction (%) of blood pressure” value is listed as 15 ± 3% in data set [1] (setting [10]) and 32 ± 2% in data set [1] (setting [11]).

Consider `CCC(O)CC[C@H](O)/C=C/[C@H]1[C@H](O)CC(=O)[C@@H]1C/C=C\CCCC(=O)OC` (stereo partly shown) [18RS-OH-PGE2-me, 18RS-Hydroxy PGE2 Methyl Ester], for which the Maximum irritative effect in [2] (Dose 1 μg topically on eye) is 0.0 ± 0.0; in data set [2] (Dose 3 μg topically on eye), 0.0 ± 0.0; in data set [2] (Dose 10 μg topically on eye) it was 0.0 ± 0.0; in [2] (Dose 30 μg topically on eye) it was 0.3 ± 0.2. Moreover, the “irritant effect (in words)” value in [2] is listed as “no or markedly reduced irritant effect, even at doses 1000 times higher than PGE1-isopropyl ester”.

Turning to `C[C@@H](O)CCC[C@H](O)/C=C/[C@H]1[C@H](O)CC(=O)[C@@H]1C/C=C\CCCC(=O)O` [19R-OH-PGE2, 19R-hydroxy-prostaglandin E2], the “irritation by swelling of the ocular structures (in words)” value in [3] is “no evidence of such irritation”. The “factor by which concentration-response curves of PGE1 and 19R-OH-PGE2 differ” value in [4] (FIG. 1, 19R-OH-PGE2 about half to one third as potent as PGE1) is on record as 2-3. In data set [4], the “Reduction in tension (%)” value turned out to be 96.9 ± 3.1% and the EC50 worked out at 0.69 µM. Moreover, the “vasodilatory effect (in words)” value in [5] is “the same efficacy in inducing vasodilatation and were also about equipotent”. Also, in data set [1] (setting [10]), the “Reduction (%) of blood pressure” value is listed as 31 ± 3%. The “Reduction (%) of blood pressure” value in [1] (setting [11]) was 43 ± 6%. For the same molecule, in data set [6], the “lid closure and irritant effect in rabbit eye (in words)” value is “does not cause lid closure in rabbits but induces an irritant effect by inducing swelling of the ocular structures”.

In the case of `COC(=O)CCC/C=C\C[C@H]1C(=O)C[C@@H](O)[C@@H]1/C=C/[C@@H](O)CCC[C@@H](C)O` [19R-OH-PGE2-me, 19-R-Hydroxy-prostaglandin E2-Methyl Ester], the “intraocular pressure 1 hour after topical administration” value in [7] was 12.7+/−1.2 mmHg. Further, the Maximum irritative effect in data set [2] (Dose 0.1 μg topically on eye) worked out at 0.0 ± 0.0; in [2] (Dose 1 μg topically on eye), 0.1 ± 0.1; in [2] (Dose 10 μg topically on eye) it was 0.1 ± 0.1; in data set [2] (Dose 100 μg topically on eye) it was 0.7 ± 0.4. Also, in data set [2], the “irritant effect (in words)” value is “no or markedly reduced irritant effect, even at doses 1000 times higher than PGE1-isopropyl ester”.

For the molecule `O=C(O)CCC/C=C\C[C@H]1C(=O)C[C@@H](O)[C@@H]1/C=C/[C@@H](O)CCCCCO` [20-OH-PGE2, 20-hydroxy PGE2], the “Reduction (%) of blood pressure” value is reported as 38 ± 3% in data set [1] (setting [10]) and 44 ± 0% in data set [1] (setting [11]).

As for `COC(=O)CCC/C=C\C[C@H]1C(=O)C[C@@H](O)[C@@H]1/C=C/[C@@H](O)CCCCCO` [20-OH-PGE2-me, 20-OH-Prostaglandin E2-Methyl Ester], the Maximum irritative effect in data set [2] (Dose 3 μg topically on eye) worked out at 0.5 ± 0.0; in data set [2] (Dose 10 μg topically on eye), 1.2 ± 0.2; in [2] (Dose 30 μg topically on eye), 1.2 ± 04.

For `C[N+](C)(C)CCOC(N)=O` [Carbachol, reference compound], in data set [4], the “Reduction in tension (%)” value worked out at 100.0 ± 0.0%.

Consider `CCCCC[C@H](O)/C=C/[C@H]1[C@H](O)CC(=O)[C@@H]1CCCCCCC(=O)O` [PGE1, prostaglandin E1, reference compound], for which the figures for the Maximum irritative effect in [2] (Dose 0.1 μg topically on eye), in [2] (Dose 1 μg topically on eye) and in [2] (Dose 10 μg topically on eye) were 0.6 ± 0.1, 1.6 ± 0.2 and 3.0 ± 0.0, respectively. In data set [4] (Homo sapiens), the midpoint of the response, the EC50, lay at 0.25 µM. Further, in data set [4], the “Reduction in tension (%)” value is listed as 90.9 ± 3.7%. In addition, the chromatographic logP in data set [8] was 0.7. Further, the “vasodilatory effect (in words)” value in [5] is “the same efficacy in inducing vasodilatation and were also about equipotent”. The “Reduction (%) of blood pressure” value in data set [1] (setting [10]) stood at 35 ± 5%; in data set [1] (setting [11]) it was 52 ± 3%.

For `CCCCC[C@H](O)/C=C/[C@H]1[C@H](O)CC(=O)[C@@H]1CCCCCCC(=O)OC(C)C` [PGE1-ie, PGE1-isopropyl ester, reference compound], the values for the Maximum irritative effect in data set [2] (Dose 0.01 μg topically on eye), in data set [2] (Dose 0.1 μg topically on eye) and in data set [2] (Dose 0.3 μg topically on eye) were 0.4 ± 0.2, 1.7 ± 0.3 and 2.8 ± 0.1, respectively.

Regarding `CCCCC[C@H](O)/C=C/[C@@H]1[C@@H](C/C=C\CCCC(=O)OC(C)C)[C@@H](O)C[C@H]1O` [PGF2α isopropyl ester], the “log P of reference” value in data set [9] is “(log P 4.5). ie = isopropyl ester, me = methyl ester”.

For orientation: EC50 means the concentration giving half of the maximal effect. High values mean lower potency in that assay, low ones higher potency in that assay. For orientation: chromatographic logP means a lipophilicity value derived from retention on a column.
